In the assay the target is human orexin type 2 receptor (hOX2R) (Homo sapiens (Human), UniProt O43614). As to the kind of experiment: Measurement of orexin type 2 receptor agonist activity (Experimental Example 2-1, FLIPR TETRA, intracellular Ca2+). It counts as cell-based. The settings on record: CHO dhfr- cells expressing hOX2R; for Emax at 30 µM: value at 30 uM concentration, orexin B as full agonist = 100%; for Emax: read-out: Emax (%).

[1] abbreviates: agonist activity, 10 nM human orexin B = 100%.

human orexin type 2 receptor (hOX2R), sequence (O43614 whole entry): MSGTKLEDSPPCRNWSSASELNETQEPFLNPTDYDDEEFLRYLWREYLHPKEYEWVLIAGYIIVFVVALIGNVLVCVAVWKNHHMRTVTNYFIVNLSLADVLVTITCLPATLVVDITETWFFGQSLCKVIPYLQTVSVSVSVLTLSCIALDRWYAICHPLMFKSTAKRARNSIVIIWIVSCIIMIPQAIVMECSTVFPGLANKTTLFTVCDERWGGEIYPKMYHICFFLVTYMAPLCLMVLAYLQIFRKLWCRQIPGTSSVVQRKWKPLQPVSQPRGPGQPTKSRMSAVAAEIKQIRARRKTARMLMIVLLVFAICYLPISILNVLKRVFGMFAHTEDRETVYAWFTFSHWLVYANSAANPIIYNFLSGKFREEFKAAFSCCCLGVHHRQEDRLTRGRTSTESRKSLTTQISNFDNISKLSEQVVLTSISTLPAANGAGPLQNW

As usually defined, the EC50 is the concentration at which the effect is half-maximal. As a reminder, the Emax is the greatest response seen or fitted, relative to the assay's reference. Consider `COCC(=O)N1CCC[C@H](NS(C)(=O)=O)[C@@H]1CO[C@H]1CC[C@@H](c2ccccc2)CC1` (relative stereo) [Example 119, N-(cis-1-(methoxyacetyl)-2-(((cis-4-phenylcyclohexyl)oxy)methyl)piperidin-3-yl)methanesulfonamide], for which the Emax at 30 µM came out at 107%. In addition, a half-maximal effect under setting [1] (EC50) was put at 30 nM. As to `CC(C)OC(=O)N1CCC[C@H](NS(C)(=O)=O)[C@@H]1CO[C@H]1C[C@@H](c2ccccc2)C1` (relative stereo) [Example 307, isopropyl cis-3-((methylsulfonyl)mino)-2-(((cis-3-phenylcyclobutyl)oxy)methyl)-piperidine-1-carboxylate], where the note is “FLIPR TETRA, Fluo-4AM”, the EC50 is 1600 nM and the Emax stood at 98%. The corresponding values for `CS(=O)(=O)N[C@H]1CCCN(C(=O)OC2CC2)[C@H]1CO[C@H]1CC[C@@H](c2cccc(F)c2)CC1` [Example 272, cyclopropyl (2R,3S)-2-(((cis-4-(3-fluorophenyl)cyclohexyl)oxy)methyl)-3-((methylsulfonyl)amino)piperidine-1-carboxylate] are 28 nM and 96%. For the compound `CC(OC(=O)N1CCC[C@H](NS(=O)(=O)N(C)C)[C@@H]1COC1CCN(c2ncccn2)CC1)C(F)(F)F` (relative stereo) [Example 316, 1,1,1-trifluoropropan-2-yl cis-3-((dimethylsulfamoyl)amino)-2-(((1-(pyrimidin-2-yl)piperidin-4-yl)oxy)methyl)piperidine-1-carboxylate], under “FLIPR TETRA, Fluo-4AM”, the EC50 came out at 330 nM and the Emax amounted to 91%. Compound `[2H]C1C([2H])[C@]([2H])(C(C)C)C([2H])C([2H])[C@]1([2H])OC[C@H]1[C@@H](NS(C)(=O)=O)CCCN1C(C)=O` (stereo partly drawn) [Example 103, N-(cis-1-acetyl-2-(((cis-4-isopropyl(1,2,3,4,5,6-d6)cyclohexyl)oxy)methyl)piperidin-3-yl)methanesulfonamide] had an Emax at 30 µM of 98%. Under setting [1], this compound displayed an EC50 of 170 nM.

`CS(=O)(=O)N[C@H]1CCCN(C(=O)C2CC2)[C@H]1CO[C@H]1CC[C@@H](c2c(F)cccc2F)CC1` [Example 213, N-((2R,3S)-1-(cyclopropylcarbonyl)-2-(((cis-4-(2,6-difluorophenyl)cyclohexyl)oxy)methyl)piperidin-3-yl)methanesulfonamide]: under “FLIPR TETRA, Fluo-4AM”, a half-maximal effect (EC50) was put at 0.44 nM and the Emax came out at 102%. In the same order, the values of `CS(=O)(=O)N[C@H]1CCCN(C(=O)OC2CC2)[C@H]1COC1CCN(c2ncccn2)CC1` (relative stereo) [Example 287, cyclopropyl cis-3-((methylsulfonyl)amino)-2-(((1-(pyrimidin-2-yl)piperidin-4-yl)oxy)methyl)piperidine-1-carboxylate] are 150 nM and 99%. In the same order, the values of `CCCC(=O)N1CCC[C@H](NS(C)(=O)=O)[C@@H]1COC1CCN(c2ccccc2F)CC1` (relative stereo) [Example 227, N-(cis-1-butyryl-2-(((1-(2-fluorophenyl)piperidin-4-yl)oxy)methyl)piperidin-3-yl)methanesulfonamide] are 2400 nM and 102%.

In the case of `CS(=O)(=O)N[C@H]1CCCN(C(=O)C2CC(=O)C2)[C@H]1COC1CCN(c2ccccc2F)CC1` (relative stereo) [Example 233, N-(cis-2-(((1-(2-fluorophenyl)piperidin-4-yl)oxy)methyl)-1-((3-oxocyclobutyl)carbonyl)piperidin-3-yl)methanesulfonamide], where the note is “FLIPR TETRA, Fluo-4AM”, a half-maximal effect (EC50) was put at 5000 nM and the Emax worked out at 83%. `CC(C)[C@H]1CC[C@@H](OC[C@H]2[C@@H](NS(C)(=O)=O)CCCN2C(=O)CCc2ccccc2)CC1` (relative stereo) [Example 54, N-(cis-2-(((cis-4-isopropylcyclohexyl)oxy)methyl)-1-(3-phenylpropanoyl)piperidin-3-yl)methanesulfonamide] yielded an Emax at 30 µM of 88%. For the same compound, the midpoint of the response under setting [1], the EC50, lay at 4100 nM. Consider `CS(=O)(=O)N[C@H]1CCCN(C(=O)C2CC2)[C@H]1COC1CCN(c2ncc(F)cn2)CC1` (relative stereo) [Example 202, N-(cis-1-(cyclopropylcarbonyl)-2-(((1-(5-fluoropyrimidin-2-yl)piperidin-4-yl)oxy)methyl)piperidin-3-yl)methanesulfonamide], for which, under “FLIPR TETRA, Fluo-4AM”, the EC50 was found to be 19 nM and the Emax is 97%.

Turning to `CS(=O)(=O)N[C@H]1CCCN(C(=O)C2CC2)[C@H]1CO[C@H]1CC[C@@H](c2ccccc2F)CC1` [Example 268, N-((2R,3S)-1-(cyclopropylcarbonyl)-2-(((cis-4-(2-fluorophenyl)cyclohexyl)oxy)methyl)piperidin-3-yl)methanesulfonamide], where the note is “FLIPR TETRA, Fluo-4AM”, a half-maximal response (EC50) required 1.5 nM and the Emax amounted to 103%.

The compound `CC(=O)N1CCC[C@H](NS(=O)(=O)N(C)C)[C@@H]1CO[C@H]1CC[C@@H](C(C)C)CC1` (relative stereo) [Example 78, N′-(cis-1-acetyl-2-(((cis-4-isopropylcyclohexyl)oxy)methyl)piperidin-3-yl)-N,N-dimethylsulfuric diamide] registered an Emax at 30 µM of 91%. Moreover, under setting [1], the EC50 worked out at 63 nM.

As for `CCNC(=O)N1CCC[C@H](NS(C)(=O)=O)[C@@H]1CO[C@H]1CC[C@@H](c2ccccc2OC(F)(F)F)CC1` (relative stereo) [Example 295, cis-N-ethyl-3-((methylsulfonyl)amino)-2-(((cis-4-(2-(trifluoromethoxy)phenyl)cyclohexyl)oxy)methyl)piperidine-1-carboxamide], where the note is “FLIPR TETRA, Fluo-4AM”, the EC50 is 4.2 nM and the Emax was 93%. The corresponding values for `CC(=O)N1CCC[C@H](NS(C)(=O)=O)[C@@H]1CO[C@H]1CC[C@@H](c2cccc(F)c2)CC1` [Example 147, N-((2R,3S)-1-acetyl-2-(((cis-4-(3-fluorophenyl)cyclohexyl)oxy)methyl)piperidin-3-yl)methanesulfonamide] are 10 nM and 100%. Regarding `CCS(=O)(=O)N[C@H]1CCCN(C(=O)OC)[C@H]1CO[C@H]1CC[C@@H](c2ccccc2)CC1` (relative stereo) [Example 301, methyl cis-3-((ethylsulfonyl)amino)-2-(((cis-4-phenylcyclohexyl)oxy)methyl)-piperidine-1-carboxylate], under “FLIPR TETRA, Fluo-4AM”, the EC50 worked out at 21 nM and the Emax turned out to be 105%. The corresponding values for `CC(C)OC(=O)N1CCC[C@H](NS(C)(=O)=O)[C@@H]1COC1CCN(c2ccccc2F)CC1` (relative stereo) [Example 237, isopropyl cis-2-(((1-(2-fluorophenyl)piperidin-4-yl)oxy)methyl)-3-((methylsulfonyl)amino)piperidine-1-carboxylate] are 490 nM and 90%. In the case of `CS(=O)(=O)CC(=O)N1CCC[C@H](NS(C)(=O)=O)[C@@H]1CO[C@H]1CC[C@@H](c2ccccc2)CC1` [Example 181, N-((2R,3S)-1-((methylsulfonyl)acetyl)-2-(((cis-4-phenylcyclohexyl)oxy)methyl)piperidin-3-yl)methanesulfonamide], the Emax (FLIPR TETRA, Fluo-4AM) stood at 89%. Same read-out and setting: the figure for `COC(=O)N1CCC[C@H](NS(C)(=O)=O)[C@@H]1CO[C@H]1CC[C@@H](c2c(F)ccc(F)c2F)CC1` [Example 257, methyl (2R,3S)-3-((methylsulfonyl)amino)-2-(((cis-4-(2,3,6-trifluorophenyl)cyclohexyl)oxy)methyl)piperidine-1-carboxylate] is 97%. In the case of `CC1(C)CCC(C(=O)N2CCC[C@H](NS(C)(=O)=O)[C@@H]2COC2CCN(c3ncccn3)CC2)CC1` (relative stereo) [Example 210, N-(cis-1-((4,4-dimethylcyclohexyl)carbonyl)-2-(((1-(pyrimidin-2-yl)piperidin-4-yl)oxy)methyl)piperidin-3-yl)methanesulfonamide], where the note is “FLIPR TETRA, Fluo-4AM”, the EC50 is 3600 nM and the Emax was found to be 86%. The corresponding values for `CCNC(=O)N1CCC[C@H](NS(C)(=O)=O)[C@@H]1CO[C@H]1C[C@@H](c2ccc(C)cc2)C1` (relative stereo) [Example 192, cis-N-ethyl-2-(((cis-3-(4-methylphenyl)cyclobutyl)oxy)methyl)-3-((methylsulfonyl)amino)piperidine-1-carboxamide] are 150 nM and 108%. With `CC(C)[C@H]1CC[C@@H](OC[C@H]2[C@@H](NS(C)(=O)=O)CCCN2C(=O)COc2ccccc2)CC1` (relative stereo) [Example 44, N-(cis-2-(((cis-4-isopropylcyclohexyl)oxy)methyl)-1-(phenoxyacetyl)piperidin-3-yl)methanesulfonamide], the Emax at 30 µM was found to be 96%. Further, a half-maximal response under setting [1] (EC50) required 1300 nM. On to `CS(=O)(=O)N[C@H]1CCCN(C(=O)C2CC2)[C@H]1COC1CCN(c2ccccc2Cl)CC1` (relative stereo) [Example 201, N-(cis-2-(((1-(2-chlorophenyl)piperidin-4-yl)oxy)methyl)-1-(cyclopropylcarbonyl)piperidin-3-yl)methanesulfonamide], for which, under “FLIPR TETRA, Fluo-4AM”, the EC50 is 2000 nM and the Emax is 92%. `CC(C)[C@H]1CC[C@@H](OC[C@H]2[C@@H](NS(C)(=O)=O)CCCN2C(=O)Oc2ccccc2)CC1` (relative stereo) [Example 43, phenyl cis-2-(((cis-4-isopropylcyclohexyl)oxy)methyl)-3-((methylsulfonyl)amino)piperidine-1-carboxylate] gave an Emax at 30 µM of 93%. Under setting [1], this compound gave an EC50 of 1100 nM. For `CS(=O)(=O)N[C@H]1CCCN(C(=O)CC2CC2)[C@H]1CO[C@H]1C[C@@H](c2ccccc2)C1` (relative stereo) [Example 308, N-(cis-1-(cyclopropylacetyl)-2-(((cis-3-phenylcyclobutyl)oxy)methyl)-piperidin-3-yl)methanesulfonamide], under “FLIPR TETRA, Fluo-4AM”, a half-maximal effect (EC50) was put at 590 nM and the Emax is 109%.

The record behind these values is patent US10287305B2, “Substituted piperidine compound and use thereof” (Takeda Pharmaceutical Company Limited, priority 2016, dated 2019).
